Experiments:
IDO [1] = molecular target: T1, IDO (Homo sapiens, UniProt P14902); assay: SKOV3 kynurenine cell-based assay (IDO induced by IFN-γ); design: IDO expression was induced in the SKOV3 cells by the addition of 500 ng/ml IFN-γ; endogenous in cells; host or cells: SKOV3 (human ovarian adenocarcinoma), induced with IFN-γ; settings: 48 hours, read-out: SKOV3 Kynurenine cell based assay pIC50 (converted)
Summary of the method: (§1)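 A172 glioblastoma cells (TDO) or SKOV3 ovarian cells (IDO, induced with 500 ng/ml IFN-γ) were grown in phenol red-free RPMI with 10% FCS, 2 mM L-glutamine and 500 μM L-tryptophan, ± test compound, 48 hours at 37° C. Supernatant kynurenine was measured by absorbance at 490 nm after Erhlich's reagent.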

IDO [2] = molecular target: T1, IDO; assay: hIDO biochemical coupled assay; settings: 45 μM L-tryptophan, read-out: hIDO biochemical assay pIC50 (converted)
TDO [3] = molecular target: T2, TDO (Homo sapiens, UniProt P48775); assay: A172 kynurenine cell-based assay; design: This assay utilised cancer cells which expressed either TDO or IDO; endogenous in cells; host or cells: A172 (human glioblastoma); settings: A172 human glioblastoma cells, 48 hours, read-out: A172 Kynurenine cell based assay pIC50 (converted)
Summary of the method: as §1

TDO [4] = molecular target: T2, TDO; assay: hTDO biochemical coupled assay; settings: 330 μM L-tryptophan; for IC50: 17 minutes, room temperature, read-out: hTDO biochemical assay pIC50 (converted)
[5] = SKOV3 human ovarian adenocarcinoma cells, 500 ng/ml IFN-γ, 500 μM L-tryptophan

T2 sequence (P48775 whole entry): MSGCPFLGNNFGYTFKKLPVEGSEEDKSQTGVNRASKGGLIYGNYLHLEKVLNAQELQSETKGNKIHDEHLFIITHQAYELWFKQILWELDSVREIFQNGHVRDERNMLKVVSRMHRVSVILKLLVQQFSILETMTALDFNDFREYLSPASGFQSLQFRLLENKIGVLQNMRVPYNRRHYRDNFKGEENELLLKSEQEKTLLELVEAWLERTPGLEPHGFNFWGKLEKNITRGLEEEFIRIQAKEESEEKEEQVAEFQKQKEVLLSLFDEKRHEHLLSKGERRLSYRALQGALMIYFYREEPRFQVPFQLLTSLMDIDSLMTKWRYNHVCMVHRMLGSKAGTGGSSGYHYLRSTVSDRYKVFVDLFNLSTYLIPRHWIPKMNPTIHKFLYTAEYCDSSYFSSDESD
T1 sequence (P14902 whole entry): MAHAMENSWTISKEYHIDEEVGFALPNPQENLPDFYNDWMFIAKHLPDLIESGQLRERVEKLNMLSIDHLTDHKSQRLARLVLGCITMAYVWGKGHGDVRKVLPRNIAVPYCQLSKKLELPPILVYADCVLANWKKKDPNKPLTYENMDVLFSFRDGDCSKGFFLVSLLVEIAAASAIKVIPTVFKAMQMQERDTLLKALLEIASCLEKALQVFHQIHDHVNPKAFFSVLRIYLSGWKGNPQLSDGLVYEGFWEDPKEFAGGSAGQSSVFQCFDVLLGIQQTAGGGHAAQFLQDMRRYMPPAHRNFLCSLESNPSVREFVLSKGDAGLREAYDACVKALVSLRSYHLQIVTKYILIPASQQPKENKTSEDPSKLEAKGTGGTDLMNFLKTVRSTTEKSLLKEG

Row | Compound | IC50 (IDO [1]; [5]) [µM] | IC50 (IDO [2]; 17 minutes, room temperature) [µM] | IC50 (TDO [3]; 500 μM L-tryptophan) [µM] | IC50 (TDO [4]) [µM] | IC50 (IDO [1]; SKOV3 cells, IDO induced by 500 ng/ml IFN-γ) [µM] | IC50 (IDO [2]) [µM] | IC50 (TDO [3]) [µM] | hTDO biochemical assay pIC50 (TDO [4])
1 | CS(=O)(=O)N1CCN(c2cc(Cl)cc3[nH]ncc23)C2CCCCC21 (racemic) [Compound 341] | 32.4 to 100 | > 100 | 3.24 to 31.6 | > 100 | – | – | – | –
2 | CS(=O)(=O)N1CCN(c2cc(Cl)cc3[nH]ncc23)C2CCCCC21 (single isomer, unassigned) [Compound 385] | 32.4 to 100 | > 100 | 32.4 to 100 | > 100 | – | – | – | –
3 | CS(=O)(=O)N1CCN(c2cc(Cl)cc3[nH]ncc23)C2CCCCC21 (single isomer, unassigned) [Compound 386] | 3.24 to 31.6 | – | 3.24 to 31.6 | 3.24 to 31.6 | – | – | – | –
4 | CS(=O)(=O)N1CCN(c2cc(C(F)(F)F)cc3[nH]ncc23)C2CCCCC21 (single isomer, unassigned) [Compound 415] | > 100 | > 100 | 3.24 to 31.6 | 3.24 to 31.6 | – | – | – | –
5 | O=S(=O)(Nc1cccc2[nH]ncc12)c1ccccc1 [Compound 2] | – | > 100 | – | 32.4 to 100 | – | – | – | –
6 | Cc1noc(C)c1S(=O)(=O)Nc1cccc2[nH]ncc12 [Compound 3] | – | > 100 | – | 3.24 to 31.6 | – | – | – | –
7 | CC(C)(C)CC(=O)Nc1cccc2[nH]ncc12 [Compound 4, N-(1H-indazol-4-yl)-3,3-dimethylbutanamide] | > 100 | > 100 | 32.4 to 100 | < 3.16 | – | – | – | –
8 | O=C(Nc1cccc2[nH]ncc12)C1CCOCC1 [Compound 5] | – | > 100 | – | 32.4 to 100 | – | – | – | –
9 | CN(C)S(=O)(=O)Nc1cccc2[nH]ncc12 [Compound 7] | – | > 100 | – | 32.4 to 100 | – | – | – | –
10 | CC(C)CS(=O)(=O)Nc1cccc2[nH]ncc12 [Compound 8] | – | > 100 | – | 3.24 to 31.6 | – | – | – | –
11 | O=C(Nc1cccc2[nH]ncc12)c1ccccc1 [Compound 9] | – | > 100 | – | 32.4 to 100 | – | – | – | –
12 | CS(=O)(=O)N1CCN(c2cccc3[nH]ncc23)CC1 [Compound 10] | 32.4 to 100 | > 100 | 3.24 to 31.6 | 3.24 to 31.6 | – | – | – | –
13 | CC(=O)N1CCN(c2cccc3[nH]ncc23)CC1 [Compound 11] | 32.4 to 100 | > 100 | 3.24 to 31.6 | 32.4 to 100 | – | – | – | –
14 | CS(=O)(=O)N1CCC(c2cccc3[nH]ncc23)CC1 [Compound 12] | > 100 | > 100 | 3.24 to 31.6 | 3.24 to 31.6 | – | – | – | –
15 | CC(=O)N1CCC(c2cccc3[nH]ncc23)CC1 [Compound 14] | 32.4 to 100 | > 100 | 3.24 to 31.6 | 32.4 to 100 | – | – | – | –
16 | O=S(=O)(c1ccccc1)N1CCN(c2cccc3[nH]ncc23)CC1 [Compound 15] | 32.4 to 100 | > 100 | 3.24 to 31.6 | 32.4 to 100 | – | – | – | –
17 | O=S(=O)(C1CCCC1)N1CCN(c2cccc3[nH]ncc23)CC1 [Compound 17] | 32.4 to 100 | > 100 | 3.24 to 31.6 | 3.24 to 31.6 | – | – | – | –
18 | O=S(=O)(C1CC1)N1CCN(c2cccc3[nH]ncc23)CC1 [Compound 19] | 32.4 to 100 | > 100 | 3.24 to 31.6 | 3.24 to 31.6 | – | – | – | –
19 | CN(C)S(=O)(=O)N1CCN(c2cccc3[nH]ncc23)CC1 [Compound 21] | 32.4 to 100 | > 100 | 3.24 to 31.6 | 3.24 to 31.6 | – | – | – | –
20 | CC(C)S(=O)(=O)N1CCN(c2cccc3[nH]ncc23)CC1 [Compound 22] | 32.4 to 100 | > 100 | 3.24 to 31.6 | 3.24 to 31.6 | – | – | – | –
21 | CC(=O)N1CCN(c2cccc3[nH]ncc23)CC1(C)C [Compound 25] | 3.24 to 31.6 | 32.4 to 100 | < 3.16 | < 3.16 | – | – | – | –
22 | CC1(C)CN(c2cccc3[nH]ncc23)CCN1S(C)(=O)=O [Compound 26] | 3.24 to 31.6 | 3.24 to 31.6 | < 3.16 | < 3.16 | – | – | – | –

Row | Compound | IC50 (IDO [1]; [5]) [µM] | IC50 (IDO [2]; 17 minutes, room temperature) [µM] | IC50 (TDO [3]; 500 μM L-tryptophan) [µM] | IC50 (TDO [4]) [µM] | IC50 (IDO [1]; SKOV3 cells, IDO induced by 500 ng/ml IFN-γ) [µM] | IC50 (IDO [2]) [µM] | IC50 (TDO [3]) [µM] | hTDO biochemical assay pIC50 (TDO [4])
23 | CS(=O)(=O)N1CCN(c2cc(Cl)cc3[nH]ncc23)CC1 [Compound 28, 6-chloro-4-(4-(methylsulfonyl)piperazin-1-yl)-1H-indazole] | 3.24 to 31.6 | 3.24 to 31.6 | < 3.16 | < 3.16 | 10.5 | 22.4 | 0.339 | 6.34
24 | Cc1cc(C2CCN(S(C)(=O)=O)CC2)c2cn[nH]c2c1 [Compound 30] | 3.24 to 31.6 | < 3.16 | < 3.16 | < 3.16 | – | – | – | –
25 | c1ccc(CNc2cccc3[nH]ncc23)cc1 [Compound 34] | 32.4 to 100 | > 100 | 32.4 to 100 | 3.24 to 31.6 | – | – | – | –
26 | CS(=O)(=O)NCCOc1cccc2[nH]ncc12 [Compound 35] | – | > 100 | – | 3.24 to 31.6 | – | – | – | –
27 | Cn1ncc2cccc(N3CCN(S(C)(=O)=O)CC3)c21 [Compound 37] | – | 32.4 to 100 | – | 32.4 to 100 | – | – | – | –
28 | CC(=O)N1CCN(c2cccc3cnn(C)c23)CC1 [Compound 38] | – | 32.4 to 100 | – | 32.4 to 100 | – | – | – | –
29 | CS(=O)(=O)N1CCN(c2cc(F)cc3[nH]ncc23)CC1 [Compound 44] | – | > 100 | – | < 3.16 | – | – | – | –
30 | CC(=O)N(C)c1ccc(-c2cc(Cl)cc3[nH]ncc23)cc1 [Compound 248] | 3.24 to 31.6 | 3.24 to 31.6 | < 3.16 | – | – | – | – | –
31 | O=C(O)c1ccc(-c2cc(Cl)cc3[nH]ncc23)cc1 [Compound 253] | > 100 | > 100 | < 3.16 | – | – | – | – | –
32 | Cc1cc(-c2cc(Cl)cc3[nH]ncc23)ccc1S(C)(=O)=O [Compound 254] | 3.24 to 31.6 | 32.4 to 100 | < 3.16 | – | – | – | – | –
33 | O=C(NCC1CCCCC1)c1cc(Cl)cc2[nH]ncc12 [Compound 258] | 3.24 to 31.6 | > 100 | > 100 | – | – | – | – | –
34 | CCNC(=O)c1cc(Cl)cc2[nH]ncc12 [Compound 261] | > 100 | > 100 | 32.4 to 100 | – | – | – | – | –
35 | CC(C)COc1cccc2[nH]ncc12 [Compound 262] | 3.24 to 31.6 | > 100 | > 100 | – | – | – | – | –
36 | CN(C)C(=O)C1CCN(c2cc(Cl)cc3[nH]ncc23)C1 (stereo not drawn) [Compound 263] | 3.24 to 31.6 | 3.24 to 31.6 | 3.24 to 31.6 | – | – | – | – | –
37 | CC(=O)NCC1CCN(c2cc(Cl)cc3[nH]ncc23)CC1 [Compound 270] | 3.24 to 31.6 | 3.24 to 31.6 | < 3.16 | – | – | – | – | –
38 | O=C(c1cc(Cl)cc2[nH]ncc12)N1CCCCC1 [Compound 274] | 32.4 to 100 | > 100 | 3.24 to 31.6 | – | – | – | – | –
39 | CC(=O)N1CCC(c2cc(OC(F)(F)F)cc3[nH]ncc23)CC1 [Compound 275] | 32.4 to 100 | > 100 | 32.4 to 100 | – | – | – | – | –
40 | CC(=O)NCc1ccc(-c2cc(Cl)cc3[nH]ncc23)cc1 [Compound 276] | 3.24 to 31.6 | > 100 | < 3.16 | – | – | – | – | –
41 | CS(=O)(=O)NCc1ccc(-c2cc(Cl)cc3[nH]ncc23)cc1 [Compound 292] | 3.24 to 31.6 | > 100 | < 3.16 | – | – | – | – | –
42 | OC(c1cc(Cl)cc2[nH]ncc12)C1CCCCC1 (stereo not drawn) [Compound 293] | 32.4 to 100 | > 100 | < 3.16 | – | – | – | – | –
43 | COc1cc(-c2cc(Cl)cc3[nH]ncc23)ccc1S(C)(=O)=O [Compound 296] | 3.24 to 31.6 | > 100 | 3.24 to 31.6 | – | – | – | – | –
44 | O=C1NC2(CCN(c3cc(Cl)cc4[nH]ncc34)CC2)C(=O)N1c1ccccc1 [Compound 456] | – | < 3.16 | < 3.16 | < 3.16 | – | – | – | –

Source: patent publication US10590086B2, “Pharmaceutical compound” (IOmet Pharma Ltd., priority 2014, dated 2020)
